Like-named read-outs stand apart in the source and are kept apart here.
Legend:
5-HT4 = target: T1, 5-HT4 (Homo sapiens, UniProt Q13639); assay: PDSP primary binding 5-HT4; conditions: 1.5 h; primary binding, 10,000 nM; last figure of the line = mean of the 4 before it; read-out: 5-HT4, PDSP raw data, mean
T1 construct: purchased NIMH Psychoactive Drug Screening Program (PDSP)
Procedure: (§1) To determine if any off-target receptor-binding effects are present, all the novel ligands were sent to the National Institute of Mental Health (NIMH), Psychoactive Drug Screening Program (PDSP). The ligands were screened over a panel of 47 receptors, ion channels, and transporters to determine any other possible interactions with […]. The hERG-binding was also determined. […] No binding of the test compounds to calcium channels was observed. […] It is necessary to screen the compounds for hERG-binding during the early process of drug discovery. The unintentional binding of many drugs to hERG can cause blockade of hERG K+ channels in the heart, which can cause many side effects including cardiac arrhythmias and sudden death. […] All of the α5 imidazodiazepines were tested for hERG-binding.
(§2) The NIMH PDSP assay protocol book [https://kidbdev.med.unc.edu/databases/PDSP%20Protocols%20II%202013-03-28.pdf accessed on 23 April 2023]. describes the protocols for primary and secondary radio-ligand binding assays. These assays were carried out in a final volume of 125 µL per well in the appropriate binding buffer.
(§3) The binding of a ligand to a receptor, ion channel, or transporter was determined in the […] of 10 µM of the appropriate reference compound. […] Plates were incubated in the dark for 90 min at rt, and the reactions were stopped by vacuum filtration onto 0.3% polyethyleneimine (PEI) soaked 96-well filter mats using a 96-well Filtermateharvester. This was followed by three washes with cold PBS buffer. Radioactivity was then counted on a Microbeta counter. Nonlinear regression was used to analyze the data with N = 6 replicates.

5-HT7A = target: T2, 5-HT7A (Homo sapiens, UniProt P34969); assay: PDSP primary binding 5-HT7A; conditions: 1.5 h; primary binding, 10,000 nM; last figure of the line = mean of the 4 before it; read-out: 5-HT7A, PDSP raw data, mean
T2 construct: purchased NIMH Psychoactive Drug Screening Program (PDSP)
Procedure: as §1, §2, §3

Alpha3Beta4 = target: T3, Alpha3Beta4 (Rattus norvegicus, UniProt P04757+P12392); assay: PDSP primary binding Alpha3Beta4; conditions: primary binding, 10,000 nM; last figure of the line = mean of the 4 before it; read-out: Alpha3Beta4, PDSP raw data, mean
T3 construct: purchased NIMH Psychoactive Drug Screening Program (PDSP)
Procedure: as §1, §2, §3

hERG channels = target: T4, hERG channels (Homo sapiens, UniProt Q12809); assay: PDSP radioligand binding at hERG; conditions: primary binding, 10,000 nM; last figure of the line = mean of the 4 before it
T4 construct: purchased NIMH Psychoactive Drug Screening Program (PDSP)
Procedure: as §1, §2, §3

Alpha2A = target: T5, Alpha2A (Homo sapiens, UniProt P08913); assay: PDSP primary binding Alpha2A; conditions: 1.5 h; primary binding, 10,000 nM; last figure of the line = mean of the 4 before it; read-out: Alpha2A, PDSP raw data, mean
T5 construct: purchased NIMH Psychoactive Drug Screening Program (PDSP)
T5 sequence (P08913 1-465): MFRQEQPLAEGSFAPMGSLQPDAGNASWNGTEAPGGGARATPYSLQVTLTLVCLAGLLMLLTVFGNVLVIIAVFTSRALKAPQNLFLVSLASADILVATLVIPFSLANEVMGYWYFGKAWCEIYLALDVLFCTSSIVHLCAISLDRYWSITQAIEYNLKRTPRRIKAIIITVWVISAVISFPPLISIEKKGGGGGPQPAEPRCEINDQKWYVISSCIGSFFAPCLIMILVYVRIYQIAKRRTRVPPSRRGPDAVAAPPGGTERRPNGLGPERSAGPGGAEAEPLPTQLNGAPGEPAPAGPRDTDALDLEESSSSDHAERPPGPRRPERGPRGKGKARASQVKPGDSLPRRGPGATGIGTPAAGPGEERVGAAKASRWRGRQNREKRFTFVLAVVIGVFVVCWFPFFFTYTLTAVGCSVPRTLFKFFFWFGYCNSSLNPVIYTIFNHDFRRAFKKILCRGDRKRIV
Procedure: as §1, §2, §3

5-HT1E = target: T6, 5-HT1E (Homo sapiens, UniProt P28566); assay: PDSP primary binding 5-HT1E; conditions: primary binding, 10,000 nM; last figure of the line = mean of the 4 before it
T6 construct: purchased NIMH Psychoactive Drug Screening Program (PDSP)
Procedure: as §1, §2, §3

A2A = target: T7, A2A (Homo sapiens, UniProt P29274); assay: PDSP primary binding A2A; conditions: primary binding, 10,000 nM; last figure of the line = mean of the 4 before it
T7 construct: purchased NIMH Psychoactive Drug Screening Program (PDSP)
Procedure: as §1, §2, §3

Alpha2Beta2 = target: T8, Alpha2Beta2 (Rattus norvegicus, UniProt P12389+P12390); assay: PDSP primary binding Alpha2Beta2; conditions: primary binding, 10,000 nM; last figure of the line = mean of the 4 before it; read-out: Alpha2Beta2, PDSP raw data, mean
T8 construct: purchased NIMH Psychoactive Drug Screening Program (PDSP)
Procedure: as §1, §2, §3

[1] = target: peripheral benzodiazepine receptors (PBR) (Rattus norvegicus, UniProt P16257); assay: PDSP radioligand binding at PBR
From the text: The compounds were also screened at PDSP to determine any binding with peripheral benzodiazepine receptors (PBR). A number of biological processes are associated with PBR. The most prevalent are transportation of anions for mitochondrial transmembrane potential, biosynthesis of heme, regulation of neurological damage, proliferation, cell death (apoptosis), as well as regulation of steroidogenesis. The test compounds were screened in the primary binding assay to determine the % inhibition at PBR. […] These compounds were then subjected to a secondary screening to determine the Ki (nM) value for PBR receptors.
as §2, §3

5-HT1B = target: T9, 5-HT1B (Homo sapiens, UniProt P28222); assay: PDSP primary binding 5-HT1B; conditions: 1.5 h; primary binding, 10,000 nM; last figure of the line = mean of the 4 before it; read-out: 5-HT1B, PDSP raw data, mean
T9 construct: purchased NIMH Psychoactive Drug Screening Program (PDSP)
Procedure: as §1, §2, §3

D2 = target: T10, D2 (Homo sapiens, UniProt P14416); assay: PDSP primary binding D2; conditions: 1.5 h; primary binding, 10,000 nM; last figure of the line = mean of the 4 before it; read-out: D2, PDSP raw data, mean
T10 construct: purchased NIMH Psychoactive Drug Screening Program (PDSP)
Procedure: as §1, §2, §3

HCA2 = target: T11, HCA2 (Homo sapiens, UniProt Q8TDS4); assay: PDSP primary binding HCA2; conditions: primary binding, 10,000 nM; last figure of the line = mean of the 4 before it; read-out: HCA2, PDSP raw data, mean
T11 construct: purchased NIMH Psychoactive Drug Screening Program (PDSP)
Procedure: as §1, §2, §3

Sigma 2 = assay: PDSP primary binding Sigma 2; conditions: primary binding, 10,000 nM; last figure of the line = mean of the 4 before it
Procedure: as §1, §2, §3

V1A = target: T12, V1A (Homo sapiens, UniProt P37288); assay: PDSP primary binding V1A; conditions: primary binding, 10,000 nM; last figure of the line = mean of the 4 before it; read-out: V1A, PDSP raw data, mean
T12 construct: purchased NIMH Psychoactive Drug Screening Program (PDSP)
Procedure: as §1, §2, §3

[2] = 1.5 h, primary binding, 10,000 nM, last figure of the line = mean of the 4 before it, some tables list PBR twice, read-out: PBR, PDSP raw data, mean
[3] = at 10,000 nM, N = 5, read-out: Binding Affinity at PBR % Inhibition (Primary)

T4 sequence (Q12809 whole entry): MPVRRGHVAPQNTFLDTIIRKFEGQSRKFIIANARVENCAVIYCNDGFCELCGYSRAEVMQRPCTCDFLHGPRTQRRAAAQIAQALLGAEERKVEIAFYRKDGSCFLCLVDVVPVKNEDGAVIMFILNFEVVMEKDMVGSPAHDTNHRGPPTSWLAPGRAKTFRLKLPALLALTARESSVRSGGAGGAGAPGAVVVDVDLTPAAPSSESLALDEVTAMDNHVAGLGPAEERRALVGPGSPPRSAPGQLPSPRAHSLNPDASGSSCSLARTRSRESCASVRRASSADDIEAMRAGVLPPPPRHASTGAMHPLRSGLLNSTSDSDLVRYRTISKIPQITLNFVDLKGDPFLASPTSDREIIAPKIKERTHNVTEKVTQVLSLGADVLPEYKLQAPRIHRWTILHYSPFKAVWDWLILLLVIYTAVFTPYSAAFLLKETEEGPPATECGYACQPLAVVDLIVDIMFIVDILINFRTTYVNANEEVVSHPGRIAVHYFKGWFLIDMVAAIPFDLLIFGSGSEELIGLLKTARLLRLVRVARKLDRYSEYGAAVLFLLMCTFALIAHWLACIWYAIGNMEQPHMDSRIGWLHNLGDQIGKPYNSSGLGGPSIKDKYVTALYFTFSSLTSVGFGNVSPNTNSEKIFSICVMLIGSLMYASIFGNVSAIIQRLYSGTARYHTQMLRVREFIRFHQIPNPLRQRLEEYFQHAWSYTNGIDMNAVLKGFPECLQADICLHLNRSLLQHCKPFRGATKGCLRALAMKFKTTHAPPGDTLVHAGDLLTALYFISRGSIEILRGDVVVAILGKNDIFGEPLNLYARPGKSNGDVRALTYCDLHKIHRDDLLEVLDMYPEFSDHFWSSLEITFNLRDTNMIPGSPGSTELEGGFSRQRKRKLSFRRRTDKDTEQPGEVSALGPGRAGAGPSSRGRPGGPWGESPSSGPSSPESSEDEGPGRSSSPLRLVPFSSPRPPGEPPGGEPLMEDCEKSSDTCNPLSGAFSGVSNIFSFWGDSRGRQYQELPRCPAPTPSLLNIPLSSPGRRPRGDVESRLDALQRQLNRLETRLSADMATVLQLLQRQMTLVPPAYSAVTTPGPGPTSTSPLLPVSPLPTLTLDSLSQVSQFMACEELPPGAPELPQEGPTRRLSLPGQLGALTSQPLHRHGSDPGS
T6 sequence (P28566 whole entry): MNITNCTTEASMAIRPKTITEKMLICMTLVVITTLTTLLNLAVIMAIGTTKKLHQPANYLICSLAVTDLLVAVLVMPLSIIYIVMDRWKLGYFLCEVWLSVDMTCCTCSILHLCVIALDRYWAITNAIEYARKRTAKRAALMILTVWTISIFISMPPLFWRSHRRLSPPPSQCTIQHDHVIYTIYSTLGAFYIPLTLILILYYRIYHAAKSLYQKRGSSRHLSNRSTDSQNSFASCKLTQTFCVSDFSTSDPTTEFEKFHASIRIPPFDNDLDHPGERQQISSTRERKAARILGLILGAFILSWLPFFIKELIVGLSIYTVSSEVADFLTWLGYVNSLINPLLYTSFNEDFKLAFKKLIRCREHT
Sequence of peripheral benzodiazepine receptors (PBR) (P16257 whole entry): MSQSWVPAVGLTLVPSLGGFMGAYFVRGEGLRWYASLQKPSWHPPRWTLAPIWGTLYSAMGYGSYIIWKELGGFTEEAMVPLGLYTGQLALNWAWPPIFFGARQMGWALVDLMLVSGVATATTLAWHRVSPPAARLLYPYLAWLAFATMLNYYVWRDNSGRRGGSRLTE
T12 sequence (P37288 whole entry): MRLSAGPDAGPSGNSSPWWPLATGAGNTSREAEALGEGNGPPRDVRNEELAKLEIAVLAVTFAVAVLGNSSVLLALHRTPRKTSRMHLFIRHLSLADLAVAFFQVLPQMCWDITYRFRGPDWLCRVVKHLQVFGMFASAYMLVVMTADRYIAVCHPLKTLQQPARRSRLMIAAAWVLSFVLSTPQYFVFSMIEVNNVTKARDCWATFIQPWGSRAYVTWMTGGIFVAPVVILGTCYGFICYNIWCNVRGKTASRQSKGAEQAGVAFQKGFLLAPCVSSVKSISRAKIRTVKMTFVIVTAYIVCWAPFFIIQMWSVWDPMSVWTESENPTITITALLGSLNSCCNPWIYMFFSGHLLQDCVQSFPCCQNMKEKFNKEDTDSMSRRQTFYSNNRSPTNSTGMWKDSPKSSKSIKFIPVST
T3 sequence (P04757 26-499): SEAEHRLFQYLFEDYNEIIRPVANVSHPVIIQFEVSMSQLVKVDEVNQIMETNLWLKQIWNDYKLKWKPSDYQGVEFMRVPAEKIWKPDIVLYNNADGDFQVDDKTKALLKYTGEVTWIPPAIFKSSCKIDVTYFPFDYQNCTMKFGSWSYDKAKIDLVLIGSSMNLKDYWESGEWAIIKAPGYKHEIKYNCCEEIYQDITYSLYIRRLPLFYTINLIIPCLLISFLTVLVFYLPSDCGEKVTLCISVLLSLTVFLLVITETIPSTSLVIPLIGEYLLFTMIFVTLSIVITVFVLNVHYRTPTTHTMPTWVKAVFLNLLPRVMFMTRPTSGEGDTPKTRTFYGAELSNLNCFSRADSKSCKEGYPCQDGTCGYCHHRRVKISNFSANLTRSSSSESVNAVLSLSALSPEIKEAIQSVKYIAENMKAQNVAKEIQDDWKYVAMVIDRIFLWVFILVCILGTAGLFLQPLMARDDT
T3 sequence (P12392 21-495): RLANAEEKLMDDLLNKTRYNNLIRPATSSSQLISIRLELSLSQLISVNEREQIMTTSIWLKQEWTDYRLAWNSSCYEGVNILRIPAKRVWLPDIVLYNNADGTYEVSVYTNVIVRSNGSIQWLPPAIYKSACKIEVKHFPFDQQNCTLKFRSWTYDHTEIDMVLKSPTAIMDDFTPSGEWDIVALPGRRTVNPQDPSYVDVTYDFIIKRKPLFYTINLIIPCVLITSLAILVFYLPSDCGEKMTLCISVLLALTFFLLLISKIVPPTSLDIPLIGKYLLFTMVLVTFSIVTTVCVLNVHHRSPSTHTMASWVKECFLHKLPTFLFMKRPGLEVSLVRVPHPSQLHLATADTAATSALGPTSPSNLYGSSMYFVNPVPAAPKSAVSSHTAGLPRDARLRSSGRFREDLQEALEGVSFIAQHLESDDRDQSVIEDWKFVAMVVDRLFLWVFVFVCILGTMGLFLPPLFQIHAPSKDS
T8 sequence (P12389 28-511): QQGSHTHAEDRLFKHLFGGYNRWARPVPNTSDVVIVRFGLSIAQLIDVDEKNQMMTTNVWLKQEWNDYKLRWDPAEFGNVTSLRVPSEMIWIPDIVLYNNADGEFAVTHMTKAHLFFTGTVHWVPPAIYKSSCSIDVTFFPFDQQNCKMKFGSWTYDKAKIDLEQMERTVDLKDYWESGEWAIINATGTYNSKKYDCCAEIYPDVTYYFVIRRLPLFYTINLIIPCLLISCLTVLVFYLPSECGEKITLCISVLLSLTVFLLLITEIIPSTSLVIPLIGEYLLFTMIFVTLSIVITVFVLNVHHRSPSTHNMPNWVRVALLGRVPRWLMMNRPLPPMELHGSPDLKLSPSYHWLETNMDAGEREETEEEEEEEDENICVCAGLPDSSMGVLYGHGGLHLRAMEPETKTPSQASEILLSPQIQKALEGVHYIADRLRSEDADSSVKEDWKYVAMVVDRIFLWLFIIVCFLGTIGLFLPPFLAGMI
T8 sequence (P12390 25-500): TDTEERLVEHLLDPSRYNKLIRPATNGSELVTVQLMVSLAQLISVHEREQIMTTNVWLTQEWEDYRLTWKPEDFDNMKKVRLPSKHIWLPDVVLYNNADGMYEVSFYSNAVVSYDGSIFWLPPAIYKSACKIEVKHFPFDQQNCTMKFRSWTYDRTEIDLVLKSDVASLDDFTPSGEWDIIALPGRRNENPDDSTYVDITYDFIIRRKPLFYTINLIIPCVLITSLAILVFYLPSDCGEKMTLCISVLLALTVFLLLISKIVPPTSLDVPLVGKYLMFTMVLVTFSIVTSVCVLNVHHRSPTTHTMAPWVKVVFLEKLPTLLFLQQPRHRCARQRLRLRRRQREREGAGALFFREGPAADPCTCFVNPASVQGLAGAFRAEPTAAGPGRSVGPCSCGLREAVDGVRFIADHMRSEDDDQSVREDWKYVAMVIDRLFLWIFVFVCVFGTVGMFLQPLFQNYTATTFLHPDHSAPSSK
T2 sequence (P34969 1-445 isoform P34969-2): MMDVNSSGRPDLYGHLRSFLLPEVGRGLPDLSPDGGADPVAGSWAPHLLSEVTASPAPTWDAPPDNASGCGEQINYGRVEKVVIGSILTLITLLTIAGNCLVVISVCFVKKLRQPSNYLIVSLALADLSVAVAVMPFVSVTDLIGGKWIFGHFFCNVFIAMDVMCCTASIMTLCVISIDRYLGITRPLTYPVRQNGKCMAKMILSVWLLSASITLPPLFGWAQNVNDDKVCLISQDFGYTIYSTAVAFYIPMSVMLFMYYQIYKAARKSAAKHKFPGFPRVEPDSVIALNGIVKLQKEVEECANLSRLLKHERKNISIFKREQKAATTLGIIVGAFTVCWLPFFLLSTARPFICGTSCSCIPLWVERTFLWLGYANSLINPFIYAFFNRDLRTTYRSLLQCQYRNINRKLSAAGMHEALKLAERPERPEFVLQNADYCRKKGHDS
T11 sequence (Q8TDS4 whole entry): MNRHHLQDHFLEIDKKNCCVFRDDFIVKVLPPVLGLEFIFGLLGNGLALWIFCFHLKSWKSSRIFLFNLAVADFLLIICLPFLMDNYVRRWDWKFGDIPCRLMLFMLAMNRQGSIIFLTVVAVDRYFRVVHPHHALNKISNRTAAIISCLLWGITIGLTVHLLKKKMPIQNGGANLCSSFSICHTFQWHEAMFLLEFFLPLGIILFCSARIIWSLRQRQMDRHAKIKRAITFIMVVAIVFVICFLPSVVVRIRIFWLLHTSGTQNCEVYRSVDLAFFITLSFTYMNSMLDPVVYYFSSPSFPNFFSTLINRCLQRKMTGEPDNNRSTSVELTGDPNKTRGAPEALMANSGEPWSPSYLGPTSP

SMILES | inhibition at 10 µM (5-HT4) | inhibition at 10 µM (5-HT7A) | inhibition at 10 µM (Alpha3Beta4) | HERG, PDSP raw data, mean (hERG channels) | inhibition at 10 µM (Alpha2A) | 5-HT1E, PDSP raw data, mean (5-HT1E) | A2A, PDSP raw data, mean (A2A) | inhibition at 10 µM (Alpha2Beta2) | inhibition at 10 µM [1, 2] | inhibition at 10 µM (5-HT1B) | inhibition at 10 µM (D2) | inhibition at 10 µM (HCA2) | Sigma 2, PDSP raw data, mean (Sigma 2) | inhibition at 10 µM (V1A) | Ki ([1]; N = 2, read-out: Binding Affinity at PBR Ki (Secondary Screen)) | inhibition at 10 µM [1, 3] | Ki [1]
C#Cc1ccc2c(c1)C(c1ccccn1)=N[C@@H](C)c1c(C(=O)NC)ncn1-2 [Compound 23, (S)-8-Ethynyl-N,4-dimethyl-6-(pyridin-2′-yl)-4H-benzo[f]imidazo[1,5-a][1,4]diazepine-3-carboxamide] | -1.06% | -13.5% | 1.99% | -4.24% | 5.8% | 19.33% | -9.74% | -3.67% | 34.9% | -3.82% | -4.79% | 15.2% | 8.85% | 25.4% |  |  | 
C#Cc1ccc2c(c1)C(c1ccccc1Cl)=N[C@H](C)c1c(C(=O)N(C)CC)ncn1-2 [Compound 29] | -6.11% | -2.22% | 0.02% | -1.55% | 7.96% | 19.25% | -10.24% | -2.89% | -10.9% | -3.99% | -1.58% | -26.3% | 13.69% | 8.93% |  |  | 
CCc1noc(-c2ncn3c2CN=C(c2ccccc2F)c2cc(C4CC4)ccc2-3)n1 [Compound 44, 5-(8-Cyclopropyl-6-(2′-fluorophenyl)-4H-benzo[f]imidazo[1,5-a][1,4]diazepin-3-yl)-3-ethyl-1,2,4-oxadiazole] | -9.26% | 9.22% | 7.56% | 33.24% | 14.4% | 11.75% | 21.36% | -6.67% | 71% | 62.1% | 0.67% | -11.9% | 74.98% | 21.3% |  |  | 
CCc1noc(-c2ncn3c2[C@@H](C)N=C(c2ccccc2F)c2cc(-c4ccccc4)ccc2-3)n1 [Compound 35, (R)-3-Ethyl-5-(6-(2′-fluorophenyl)-4-methyl-8-phenyl-4H-benzo[f]imidazo[1,5-a][1,4]diazepin-3-yl)-1,2,4-oxadiazole] | -0.48% | 8.12% | 12% | 37.34% | 34.5% | 5.88% | 19.84% | 4.18% | 71.8% | 11.6% | 7.47% | -18.7% | 85.36% | 3.9% | 1110 ± 24.5 nM | 71.8 ± 10.5% | 
C[C@H]1N=C(c2ccccc2F)c2cc(Cl)ccc2-n2cnc(-c3nc(C4CC4)no3)c21 [Compound 38, (R)-5-(8-Chloro-6-(2′-fluorophenyl)-4-methyl-4H-benzo[f]imidazo[1,5-a][1,4]diazepin-3-yl)-3-cyclopropyl-1,2,4-oxadiazole] | 38.7% | 11.9% | 12.4% | 9.37% | 15.6% | -22.45% | 19.95% | 1.44% | 89.5% | 8.75% | 21.8% | -1.1% | 80.86% | 4.3% |  | 90 ± 2.13% | 617 ± 27.1 nM

From paper PMC10303271, “Synthesis and Receptor Binding Studies of α5 GABAAR Selective Novel Imidazodiazepines Targeted for Psychiatric and Cognitive Disorders” (Molecules, 2023)
